The source of these data is US5212182A, “Substituted quinolinyl- and naphthalenylbenzamides or benzylamines and related compounds useful as analgesics” (American Home Products Corpooration, priority 1990, dated 1993).

Assay [1] concerns bradykinin-induced hyperalgesia (pain threshold) in rats. Briefly: Bradykinin-induced Hyperalgesia in Rats. The format is in vivo, rats (female Sprague Dawley). The conditions noted are these: 100 mg/kg p.o. On the procedure:
Protocol for Bradykinin-induced Hyperalgesia in Rats
The purpose of this assay is to evaluate analgesic activity of bradykinin antagonists in an inflammatory pain model in rats.
Animals (female Sprague Dawley rats (Charles River, Kingston, NY) 80-115 gms) are fasted overnight, with water given ad lib, if the compounds are to be administered orally. Ten rats are used per test group and six per normal group.
Test compounds are suspended in 0.5% Tween 80 in distilled water, and are administered orally 1 hour (or i.p. 5 minutes) prior to the injection of bradykinin.
The animals are randomized prior to drug administration in order to make the study blind. Bradykinin is injected, as the phlogistic agent, into the subplantar region of the right hindpaw of the rats, in a 0.01 mg/0.1 mL saline solution. The pain threshold is measured 1 minute later using a modification of the Randall-Selitto method, [Randall, et al., Archives International Pharmacodynamics, VIII N4, p 409-419 (1957)].
Animals are placed in a horizontal position with a hindpaw hanging down on the apparatus. The teflon point is placed on the foot pad and a steady pressure is applied, using a foot pedal. The endpoint is determined when the rat emits a squeak or forcefully attempts to remove its paw from the apparatus. […]
Drug effects are expressed as a percent change in pain threshold from bradykinin control values. […]

Assay [2] concerns the target T1, BK2 receptor sites in guinea pig ileum (Cavia porcellus, UniProt O70526).
T1 construct: The distal portion of the ileum is removed and placed in ice cold homogenization buffer; from tissue; host or cells: distal ileum of adult male Hartley guinea pigs (animals from Charles River), washed membrane homogenate
T1 sequence (O70526 1-372): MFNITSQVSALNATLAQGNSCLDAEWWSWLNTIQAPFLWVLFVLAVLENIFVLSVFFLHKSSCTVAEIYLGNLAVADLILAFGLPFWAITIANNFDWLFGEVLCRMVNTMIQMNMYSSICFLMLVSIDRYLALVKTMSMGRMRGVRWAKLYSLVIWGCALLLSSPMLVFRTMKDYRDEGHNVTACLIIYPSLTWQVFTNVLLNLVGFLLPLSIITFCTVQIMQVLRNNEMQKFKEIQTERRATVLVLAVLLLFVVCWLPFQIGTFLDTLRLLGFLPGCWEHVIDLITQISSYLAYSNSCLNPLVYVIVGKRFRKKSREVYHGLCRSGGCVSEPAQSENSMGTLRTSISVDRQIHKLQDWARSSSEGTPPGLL
The assay can be described thus: Bradykinin Receptor Binding Assay (3H-BK Binding, G. P. Ileum). Also noted: species or system guinea pig (Hartley strain). The following applies: 80 pM 3H-BK. On the procedure: Protocol for Bradykinin Receptor Binding Assay
The purpose of this assay is to identify compounds which compete specifically with tritiated bradykinin (^3 H--BK) for BK2 receptor sites in guinea pig ileum.
The guinea pig (adult male Hartley strain, 350-500 g, Charles River) is euthanized by stunning followed by decapitation. The distal portion of the ileum is removed and placed in ice cold homogenization buffer (25 mM N-[tris(hydroxymethyl)methyl]-2-aminoethanesulfonic acid (TES), 1 mM 1,10-phenanthroline, adjusted to pH 6.8 with NH4 OH). The contents of the ileal lumen are rinsed out with cold homogenization buffer. The tissue is cut into small pieces and homogenized in 20 volumes of homogenization buffer.
The homogenate is filtered through a surgical gauze sponge and centrifuged at 50,000×g for 20 minutes at 4° C. The supernatant fluid is discarded and the homogenization and centrifugation procedure is repeated. After discarding the supernatant fluid, the final pellet is resuspended in 40 volumes of assay buffer (25 mM TES, pH=6.8, 1 mM 1,10-phenanthroline, 1 mM (2RS, 3RS)-1,4-dimercapto-2,3-butanediol (Cleland's reagent), 2 μM captopril, 140 μg/mL bacitracin and 0.1% bovine serum albumin (BSA)). The homogenate is filtered once more through a surgical gauze sponge and kept on ice until use.
The assay is performed using only polypropylene pipet tips and polypropylene test tubes. Each tube receives 100 μL of 800 pM ^3 H--BK, 100 μL of the test compound solution or vehicle (TES assay buffer), and 100 μL of 25 mg/mL tissue homogenate in a total volume of 1 mL. The final concentration of ^3 H--BK is 80 pM. The final tissue concentration is 2.5 mg/mL. Compounds are screened at 100 μM or 10 μM. Nonspecific binding is determined in the presence of 1 μM unlabeled bradykinin. All determinations are made in triplicate. Three 100 μL aliquots of the 800 pM ^3 H--BK working solution are added directly to scintillation vials to determine the total added radioactivity.
The tubes are incubated for 90 minutes at 25° C. while being gently agitated on an orbital shaker. Bound ligand is separated from free ligand, using Whatman GF/B glass fiber filters (pretreated with 0.1% aqueous polyethyleneimine made neutral with HCl). Assay tubes and glass fiber filters are rinsed three times with 3 mL of cold physiological saline.
The filter discs are transferred to 20 mL scintillation vials. Ten mL of aqueous sample LSC cocktail (Aquassure, New England Nuclear) is added to each vial. After capping, the vials are agitated for 5 minutes on an orbital shaker. The samples are counted for ten minutes in a refrigerated liquid scintillation counter.
The following values are obtained:
Bns : Nonspecific binding
Bx : Total binding in the presence of the test compound
C: Control specific binding C=Bt -Bns
D: Specific binding in the presence of the test compound D=Bx -Bns
Percent of Control: D/C×100
Percent Inhibition: (1-D/C)×100
After calculation of Percent of Control for each dilution, the values are analyzed and the IC50 with its 95% confidence limits is determined on a Hewlett Packard 9816 computer using the program "PS-NONLIN" (generalizednon-linear regression with inverse prediction and graphics).
The test results are reported in the TABLE below under the heading 3H--BK Binding, G. P. Ileum.

In assay [3] the test system is writhing response induced by bradykinin in mice. The assay can be described thus: Bradykinin-induced Writhing in Mice. The format is in vivo, mice (male CD-1). How it is done:
Protocol for Bradykinin-induced Writhing in Mice
The purpose of this assay is to determine the ability of test drugs to inhibit the writhing response induced by bradykinin in mice. This test is a primary in vivo screen for bradykinin antagonist analgesics.
Groups of 10 mice each (male CD-1 mice (14-19 g) from Charles River, Kingston, NY, fasted overnight prior to experiment, but having free access to water) are used. Each mouse receives an intraperitoneal injection of 1 mg/kg PGE2 (0.1 mL/10 g body weight) followed 20 minutes later by an i.p. injection of bradykinin 0.5 mg/kg. The number of writhes per mouse is determined for 2 minutes after bradykinin injection. For a primary screen, drugs are administered orally at 20 mg/kg 1 hour prior to the bradykinin.
The percent inhibition of writhing obtained is calculated as follows: [formula]
Several logarithmically spaced doses are tested and the ED50 (dose which inhibits the writhing response by 50%) is determined by regression methods with inverse prediction.
The test results are reported in the TABLE below under the heading BK Induced Writhing in Mice.

With `O=C(NC1CCN(Cc2ccccc2)CC1)c1ccc(OCc2ccnc3ccccc23)cc1` [Example 1, N-[1-(Phenylmethyl)-4-piperidinyl]-4-(4-quinolinylmethoxy)benzamide], the “increase of BK induced pain threshold in rats” value in assay [1] turned out to be 44.8%. In assay [2], the IC50 stood at 9.1 µM and the inhibition at 100 µM amounted to 98.8%. Further, the “BK Induced Writhing in Mice, % inhibition” value in assay [3] (30 mg/kg i.p.) stood at 40.0%. Also, the “BK Induced Writhing in Mice, % inhibition” value in assay [3] (300 mg/kg p.o.) was 52.0%.

The compound `O=C(NC1CCN(Cc2ccccc2)CC1)c1ccc(OCc2ccc3ccccc3n2)cc1` [Example 2, N-[1-(Phenylmethyl)-4-piperidinyl]-4-(2-quinolinylmethoxy)benzamide] came in with an IC50 in assay [2] of 33.6 µM. In assay [2], this compound gave an inhibition at 100 µM of 93.8%. For the same compound, the “BK Induced Writhing in Mice, % inhibition” value in assay [3] (30 mg/kg i.p.) came out at 40.0%; in assay [3] (100 mg/kg p.o.) it was 32.0%; in assay [3] (200 mg/kg p.o.) it was 22.5%.

In turn, `CCCCN1CCC(NC(=O)c2ccc(OCc3ccnc4ccccc34)cc2)CC1` [Example 3, N-(1-Butyl-4-piperidinyl)-4-(4-quinolinylmethoxy)benzamide] showed an inhibition at 10 µM in assay [2] of 15.2%.

For the compound `CCCCN1CCC(NC(=O)c2ccc(OCc3ccc4ccccc4n3)cc2)CC1` [Example 4, N-(1-Butyl-4-piperidinyl)-4-(2-quinolinylmethoxy)benzamide], the inhibition at 10 µM in assay [2] is 10.4%.

In assay [2], `O=C(NC1CCN(Cc2ccccc2)CC1)c1cccc(OCc2ccnc3ccccc23)c1` [Example 5, N-[1-(Phenylmethyl)-4-piperidinyl]-3-(4-quinolinylmethoxy)benzamide] gave an IC50 of 7.3 µM and an inhibition at 10 µM of 63.8%. Also, in assay [3] (30 mg/kg i.p.), the “BK Induced Writhing in Mice, % inhibition” value turned out to be 31.0%. Further, the “BK Induced Writhing in Mice, % inhibition” value in assay [3] (200 mg/kg p.o.) came out at 22.0%.

The compound `O=C(NC1CCN(Cc2ccccc2)CC1)c1ccccc1OCc1ccnc2ccccc12` [Example 6, N-[1-(Phenylmethyl)-4-piperidinyl]-2-(4-quinolinylmethoxy)benzamide] gave an inhibition at 10 µM in assay [2] of 17.3%.

As for `O=C(NC1CCN(Cc2ccccc2)CC1)c1cccc(OCc2ccc3ccccc3n2)c1` [Example 7, N-[1-(Phenylmethyl)-4-piperidinyl]-3-(2-quinolinylmethoxy)benzamide], testing at 10 µM in assay [2] gave an inhibition of 43.2%.

For the compound `O=C(NC1CCN(Cc2ccccc2)CC1)c1ccccc1OCc1ccc2ccccc2n1` [Example 8, N-[1-(Phenylmethyl)-4-piperidinyl]-2-(2-quinolinylmethoxy)benzamide], the inhibition at 10 µM in assay [2] stood at 8.4%.

In assay [2], `CCCCN1CCC(NC(=O)c2cccc(OCc3ccnc4ccccc34)c2)CC1` [Example 9, N-(1-Butyl-4-piperidinyl)-3-(4-quinolinylmethoxy)benzamide] yielded an inhibition at 10 µM of 21.4%.

In assay [2], `O=C(NC1CCN(Cc2ccccc2)CC1)c1ccc(OCc2cccc3ccccc23)cc1` [Example 10, N-[1-(Phenylmethyl)-4-piperidinyl]-4-(1-naphthalenylmethoxy)benzamide] gave an inhibition at 10 µM of 8.6%.

In assay [2], `CCCCN1CCC(NC(=O)c2ccc(OCc3cccc4ccccc34)cc2)CC1` [Example 11, N-(1-Butyl-4-piperidinyl)-4-(1-naphthalenylmethoxy)benzamide] yielded an inhibition at 10 µM of 11.1%.

In assay [2], `O=C(NC1CCN(Cc2ccccc2)CC1)c1ccc(/C=C/c2ccnc3ccccc23)cc1` [Example 12, (E)-N-[1-(Phenylmethyl)-4-piperidinyl]-4-[2-(4-quinolinyl)ethenyl]benzamide] came in with an inhibition at 10 µM of 78.7%. In addition, the “BK Induced Writhing in Mice, % inhibition” value in assay [3] (30 mg/kg i.p.) was 10.0%.

With `O=C(NC1CCN(Cc2ccccc2)CC1)c1ccc(/C=C\c2ccnc3ccccc23)cc1` [Example 13, (Z)-N-[1-(Phenylmethyl)-4-piperidinyl]-4-[2-(4-quinolinyl)ethenyl]benzamide], testing at 10 µM in assay [2] gave an inhibition of 35.8%.

In assay [2], `O=C(NC1CCN(Cc2ccccc2)CC1)c1ccc(OCc2cc[n+]([O-])c3ccccc23)cc1` [Example 14, N-[1-(Phenylmethyl)-4-piperidinyl]-4-(4-quinolinylmethoxy)benzamide N-Oxide] yielded an inhibition at 10 µM of 30.2%.

The compound `CCN(CC)C(=O)c1ccc(CN2CCC(NC(=O)c3ccc(OCc4ccnc5ccccc45)cc3)CC2)cc1` [Example 15, N-[1-[[4-[(Diethylamino)carbonyl]phenyl]methyl]-4-piperidinyl]-4-(4-quinolinylmethoxy)benzamide] returned an inhibition at 10 µM in assay [2] of 30.2%.

In assay [2], `c1ccc(CN2CCC(NCc3ccc(OCc4ccnc5ccccc45)cc3)CC2)cc1` [Example 16, 1-(Phenylmethyl)-N-[[4-(4-quinolinylmethoxy)phenyl]methyl]-4-piperidinamine] came in with an inhibition at 10 µM of 27.4%.

As to `CCCC(=O)N(Cc1ccc(OCc2ccnc3ccccc23)cc1)C1CCN(Cc2ccccc2)CC1` [Example 17, N-[1-(Phenylmethyl)-4-piperidinyl]-N-[[4-(4-quinolinylmethoxy)phenyl]methyl]butanamide], the inhibition at 10 µM in assay [2] was found to be 25.3%.

Turning to `O=C(NC1CCN(Cc2ccccc2)CC1)c1ccc(NCc2ccnc3ccccc23)cc1` [Example 18, N-[1-(Phenylmethyl)-4-piperidinyl]-4-[(4-quinolinylmethyl)amino]benzamide], the inhibition at 10 µM in assay [2] is 8.1%.

The compound `CCCCN1CCC(NC(=O)c2ccc(NCc3ccnc4ccccc34)cc2)CC1` [Example 19, N-(1-Butyl-4-piperidinyl)-4-[(4-quinolinylmethyl)amino]benzamide] showed an inhibition at 10 µM in assay [2] of 32.8%.
